From patent publication US8785459B2, “Quinazoline compounds as kinase inhibitors” (Development Center for Biotechnology, priority 2011, dated 2014)

Assays:
Assay type in all cases: biochemical
B-Raf (V600E) = B-Raf (V600E) (Homo sapiens (Human), UniProt P15056, V600E); assay: Raf kinase assay (B-Raf (V600E)), [33P] incorporation into MEK1(K97R)
Protocol: (§1) A. Raf Kinase Assays (B-Raf, B-raf (V600E), and C-Raf)
(§2) Inhibition of kinase activity by test compound disclosed herein was estimated by quantifying the amount of [^33P] incorporation of substrate in the presence of test compound. Standard assay conditions were 2 ng of recombinant C-Raf or 5 ng of recombinant B-Raf or 5 ng of recombinant B-Raf (V600E) kinase (Upstate Biotechnology) with 500 ng MEK1(K97R) in assay buffer {8 μM ATP, 0.5 μCi [^33P]ATP (specific activity 3000 Ci/mmol, PerkinElmer), 50 mM Tris/HCl (pH7.5), and 1 mM EGTA, 1 mM Na3VO4, 1% 2-mercaptoethanol, 0.1% Brij 35, and 0.2 mg/ml BSA} at a final volume of 25 μL. Reactions were incubated at 30° C. for 30 min and stopped by adding 3% phosphoric acid, harvested onto a 96-well GF/B UniFilter (PerkinElmer) using a unifilter harvester (PerkinElmer), and counted with a TopCount microplate scintillation counter (PerkinElmer). The IC50 values of inhibitors were determined after carrying out assays at 3-fold serially diluted concentrations of each compound in duplication. The results were analyzed using linear regression software (GraphPad Prism 4; GraphPad Software Inc.). Inhibition of B-Raf, B-raf (V600E), and C-Raf kinases by various compounds listed in Table 1 are summarized and shown in Table 3 below. IC50 value is defined as the concentration of the test compound which achieves a half-maximal inhibition of the kinase activity.

B-Raf = B-Raf (Homo sapiens (Human), UniProt P15056); assay: Raf kinase assay (B-Raf), [33P] incorporation into MEK1(K97R); details: for inhibition at 1 µM: 1.0 μM compound, read-out: B-Raf inhibition at 1.0 μM
B-Raf, sequence (P15056 whole entry): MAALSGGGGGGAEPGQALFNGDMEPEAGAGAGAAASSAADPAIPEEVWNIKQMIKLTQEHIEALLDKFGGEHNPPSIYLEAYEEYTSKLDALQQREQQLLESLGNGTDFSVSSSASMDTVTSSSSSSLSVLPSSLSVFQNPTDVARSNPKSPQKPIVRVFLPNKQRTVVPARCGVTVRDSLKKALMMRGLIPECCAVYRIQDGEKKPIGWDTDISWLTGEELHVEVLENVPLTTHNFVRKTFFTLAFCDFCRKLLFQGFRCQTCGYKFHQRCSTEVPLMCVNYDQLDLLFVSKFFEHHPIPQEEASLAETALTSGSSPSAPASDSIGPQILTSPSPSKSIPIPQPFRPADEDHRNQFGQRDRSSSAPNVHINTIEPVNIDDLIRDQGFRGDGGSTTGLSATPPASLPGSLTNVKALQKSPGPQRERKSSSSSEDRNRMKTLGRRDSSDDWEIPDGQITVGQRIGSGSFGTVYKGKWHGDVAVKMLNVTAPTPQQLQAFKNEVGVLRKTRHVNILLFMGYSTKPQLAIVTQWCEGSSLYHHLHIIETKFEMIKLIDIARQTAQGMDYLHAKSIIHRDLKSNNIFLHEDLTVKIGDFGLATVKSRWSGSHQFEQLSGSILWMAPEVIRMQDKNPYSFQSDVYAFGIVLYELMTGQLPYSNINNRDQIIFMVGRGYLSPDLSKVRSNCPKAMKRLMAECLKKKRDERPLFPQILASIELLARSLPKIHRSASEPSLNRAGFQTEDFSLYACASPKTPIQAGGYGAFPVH
Protocol: as §1, §2

C-Raf = C-Raf (Homo sapiens (Human), UniProt P04049); assay: Raf kinase assay (C-Raf), [33P] incorporation into MEK1(K97R)
C-Raf, sequence (P04049 whole entry): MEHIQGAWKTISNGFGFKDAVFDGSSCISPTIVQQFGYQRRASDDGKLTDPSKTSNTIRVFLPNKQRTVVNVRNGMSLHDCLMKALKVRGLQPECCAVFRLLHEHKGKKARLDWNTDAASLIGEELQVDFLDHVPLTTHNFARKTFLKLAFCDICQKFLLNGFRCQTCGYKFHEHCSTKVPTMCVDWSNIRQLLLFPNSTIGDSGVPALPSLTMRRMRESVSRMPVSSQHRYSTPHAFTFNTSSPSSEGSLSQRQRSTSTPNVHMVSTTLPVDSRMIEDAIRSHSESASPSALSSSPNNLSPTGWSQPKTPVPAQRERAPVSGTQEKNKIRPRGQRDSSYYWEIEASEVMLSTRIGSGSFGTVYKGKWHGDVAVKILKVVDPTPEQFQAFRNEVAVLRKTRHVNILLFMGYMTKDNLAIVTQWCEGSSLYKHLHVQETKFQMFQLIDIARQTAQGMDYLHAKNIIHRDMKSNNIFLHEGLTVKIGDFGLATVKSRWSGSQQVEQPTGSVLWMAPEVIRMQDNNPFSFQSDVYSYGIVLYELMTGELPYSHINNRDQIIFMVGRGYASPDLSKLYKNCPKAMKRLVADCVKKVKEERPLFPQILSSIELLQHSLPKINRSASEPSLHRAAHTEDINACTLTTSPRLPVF
Protocol: as §1, §2

B-Raf (V600E), sequence (P15056 whole entry V600E): as the sequence (P15056 whole entry) above, with V600E counted along it

| SMILES | IC50 (B-Raf (V600E)) | IC50 (B-Raf) | inhibition at 1 µM (B-Raf) | IC50 (C-Raf) |
| --- | --- | --- | --- | --- |
| COc1cc(-c2ccc3ncnc(Nc4cccc(C(F)(F)F)c4)c3c2)ccc1O [Compound 18, 2-methoxy-4-(4-(3-(trifluoromethyl)phenylamino)quinazolin-6-yl)phenol] | 1170 nM | 3140 nM | 48.9% | > 10000 nM |
| COc1cc(-c2ccc3ncnc(Nc4ccc(F)cc4F)c3c2)ccc1O [Compound 20, 4-(4-(2,4-difluorophenylamino)quinazolin-6-yl)-2-methoxyphenol] | 471 nM | 594 nM | 55.3% | 882 nM |
| COc1cc(-c2ccc3ncnc(Nc4ccc(Cl)cc4O)c3c2)ccc1O [Compound 21, 4-(4-(4-chloro-2-hydroxyphenylamino)quinazolin-6-yl)-2-methoxyphenol] | 1360 nM | 1120 nM | 47.6% | 810 nM |
| COc1cccc(Nc2ncnc3ccc(-c4ccc(O)c(OC)c4)cc23)c1 [Compound 22, 2-methoxy-4-(4-(3-methoxyphenylamino)quinazolin-6-yl)phenol] | 411 nM | 719 nM | 63.3% | 1390 nM |
| COc1cc(-c2ccc3ncnc(Nc4ccccc4O)c3c2)ccc1O [Compound 23, 4-(4-(2-hydroxyphenylamino)quinazolin-6-yl)-2-methoxyphenol] | 377 nM | 669 nM | 62.6% | 3090 nM |
| COc1ccc(Nc2ncnc3ccc(-c4ccc(O)c(OC)c4)cc23)cc1O [Compound 25, 4-(4-(3-hydroxy-4-methoxyphenylamino)quinazolin-6-yl)-2-methoxyphenol] | 842 nM | 1110 nM | 54.9% | 1560 nM |
| COc1cc(-c2ccc3ncnc(Nc4cccc(S(N)(=O)=O)c4)c3c2)ccc1O [Compound 27, 3-(6-(4-hydroxy-3-methoxyphenyl)quinazolin-4-ylamino)benzenesulfonamide] | 453 nM | 415 nM | 77.2% | 887 nM |
| COc1cc(-c2ccc3ncnc(Nc4ccc(C)c(O)c4)c3c2)ccc1O [Compound 29, 4-(4-(3-hydroxy-4-methylphenylamino)quinazolin-6-yl)-2-methoxyphenol] | 212 nM | 177 nM | 85.7% | 1060 nM |
| COc1cc(-c2ccc3ncnc(Nc4ccccc4C(N)=O)c3c2)ccc1O [Compound 33, 2-(6-(4-hydroxy-3-methoxyphenyl)quinazolin-4-ylamino)benzamide] | 2340 nM | 667 nM | 53.6% | > 3000 nM |
| COc1cc(-c2ccc3ncnc(Nc4ccc(C(=O)O)cc4O)c3c2)ccc1O [Compound 34, 3-hydroxy-4-(6-(4-hydroxy-3-methoxyphenyl)quinazolin-4-ylamino)benzoic acid] | 572 nM | 494 nM | 65% | 580 nM |
| COc1cc(-c2ccc3ncnc(Nc4cccc(C(N)=O)c4)c3c2)ccc1O [Compound 35, 3-(6-(4-hydroxy-3-methoxyphenyl)quinazolin-4-ylamino)benzamide] | 290 nM | 317 nM | 74.9% | 970 nM |
| COc1cc(-c2ccc3ncnc(Nc4cccc([N+](=O)[O-])c4)c3c2)ccc1O [Compound 36, 2-methoxy-4-(4-(3-nitrophenylamino)quinazolin-6-yl)phenol] | 675 nM | 256 nM | 76.3% | 6990 nM |
| COc1cc(-c2ccc3ncnc(Nc4cccc(N)c4)c3c2)ccc1O [Compound 37, 4-(4-(3-aminophenylamino)quinazolin-6-yl)-2-methoxyphenol] | 849 nM | 573 nM | 65.8% | 1310 nM |
| COc1cc(-c2ccc3ncnc(Nc4ccc5c(c4)OCO5)c3c2)ccc1O [Compound 38, 4-(4-(benzo[d][1,3]dioxol-5-ylamino)quinazolin-6-yl)-2-methoxyphenol] | 707 nM | 660 nM | 57.5% | 1400 nM |
| COc1cc(-c2ccc3ncnc(Nc4ccc5cn[nH]c5c4)c3c2)ccc1O [Compound 39, 4-(4-(1H-indazol-6-ylamino)quinazolin-6-yl)-2-methoxyphenol] | 1440 nM | 1030 nM | 51.6% | 3280 nM |
| COc1cc(-c2cc3c(Nc4ccc(C)c(O)c4)ncnc3cc2OC)ccc1O [Compound 41, 4-(4-(3-hydroxy-4-methylphenylamino)-7-methoxyquinazolin-6-yl)-2-methoxyphenol] | 349 nM | 266 nM | 82.2% | > 10000 nM |
| COc1cc(-c2ccc3ncnc(Nc4cccc(NC(C)=O)c4)c3c2)ccc1O [Compound 44, N-(3-(6-(4-hydroxy-3-methoxyphenyl)quinazolin-4-ylamino)phenyl)acetamide] | 382 nM | 489 nM | 65.3% | 685 nM |
| COc1cc(-c2ccc3ncnc(Nc4cccc(NC(=O)C(F)(F)F)c4)c3c2)ccc1O [Compound 45, 2,2,2-trifluoro-N-(3-(6-(4-hydroxy-3-methoxyphenyl)quinazolin-4-ylamino)phenyl)acetamide] | 358 nM | 382 nM | 73.9% | 835 nM |
| COc1cc(-c2ccc3ncnc(Nc4ccc(S(N)(=O)=O)cc4)c3c2)ccc1O [Compound 46, 4-(6-(4-hydroxy-3-methoxyphenyl)quinazolin-4-ylamino)benzenesulfonamide] | 576 nM | 624 nM | 64.4% | 1960 nM |
| COc1cc(-c2ccc3ncnc(Nc4cccc(F)c4)c3c2)ccc1O [Compound 52, 4-(4-(3-fluorophenylamino)quinazolin-6-yl)-2-methoxyphenol] | 544 nM | 560 nM | 69.2% | 1300 nM |
| COc1cc(-c2ccc3ncnc(Nc4cccc(O)c4C)c3c2)ccc1O [Compound 53, 3-(6-(4-hydroxy-3-methoxyphenyl)quinazolin-4-ylamino)-2-methylphenol] | 181 nM | 141 nM | 85.5% | 500 nM |
| COc1cc(-c2ccc3ncnc(Nc4ccc5nc[nH]c5c4)c3c2)ccc1O [Compound 54, 4-(4-(1H-benzo[d]imidazol-6-ylamino)quinazolin-6-yl)-2-methoxyphenol] | 633 nM | 735 nM | 56.2% | 2570 nM |
| COc1cc(-c2ccc3ncnc(Nc4cccc(NS(C)(=O)=O)c4)c3c2)ccc1O [Compound 56, N-(3-(6-(4-hydroxy-3-methoxyphenyl)quinazolin-4-ylamino)phenyl)methanesulfonamide] | 430 nM | 463 nM | 64.1% | 1410 nM |
| COc1cc(-c2ccc3ncnc(Nc4ccc5[nH]nnc5c4)c3c2)ccc1O [Compound 66, 4-(4-(1H-benzo[d][1,2,3]triazol-5-ylamino)quinazolin-6-yl)-2-methoxyphenol] | 933 nM | 1010 nM | 59.3% | 973 nM |
| COc1cccc(-c2ccc3ncnc(Nc4cccc(O)c4)c3c2)c1 [Compound 67, 3-(6-(3-methoxyphenyl)quinazolin-4-ylamino)phenol] | 139 nM | 103 nM | 84.3% | 2400 nM |
| Nc1ccc(-c2ccc3ncnc(Nc4cccc5[nH]ncc45)c3c2)cc1 [Compound 69, 6-(4-aminophenyl)-N-(1H-indazol-4-yl)quinazolin-4-amine] | 342 nM | 260 nM | 75% | 957 nM |
| CC(=O)Nc1ccc(-c2ccc3ncnc(Nc4cccc5[nH]ncc45)c3c2)cc1 [Compound 71, N-(4-(4-(1H-indazol-4-ylamino)quinazolin-6-yl)phenyl)acetamide] | 393 nM | 373 nM | 77.2% | 935 nM |
| CS(=O)(=O)Nc1cccc(-c2ccc3ncnc(Nc4cccc(O)c4)c3c2)c1 [Compound 72, N-(3-(4-(3-hydroxyphenylamino)quinazolin-6-yl)phenyl)methanesulfonamide] | 90 nM | 73.8 nM | 93.4% | 861 nM |
| CS(=O)(=O)Nc1ccc(-c2ccc3ncnc(Nc4cccc5[nH]ncc45)c3c2)cc1 [Compound 73, N-(4-(4-(1H-indazol-4-ylamino)quinazolin-6-yl)phenyl)methanesulfonamide] | 487 nM | 366 nM | 72.5% | 1430 nM |
| COc1ccc(-c2ccc3ncnc(Nc4cccc5[nH]ncc45)c3c2)cc1Cl [Compound 76, 6-(3-chloro-4-methoxyphenyl)-N-(1H-indazol-4-yl)quinazolin-4-amine] | 240 nM | 216 nM | 86.1% | 876 nM |
